The source of these data is ChEMBL document CHEMBL1148019, “Heterocyclic substituted cantharidin and norcantharidin analogues--synthesis, protein phosphatase (1 and 2A) inhibition, and anti-cancer activity” (Bioorg Med Chem Lett, 2007).

The nature of experiment [1]: Inhibition of Protein phosphatase 1. Also on record: species or system Homo sapiens.
A short description of experiment [2]: Inhibition of Protein phosphatase 2A. Also noted: species or system Homo sapiens.
The test system of experiment [3] is HT-29. Nature of the experiment: Cytotoxicity against human HT29 cells. It is filed as functional.
For experiment [4], the system named is SW480. Nature of the experiment: Cytotoxicity against human SW480 cells. The experiment is classed as functional.
The subject of experiment [5] is MCF7. In words: Cytotoxicity against human MCF7 cells. It is filed as functional.
In experiment [6] the test system is A2780. In words: Cytotoxicity against human A2780 cells. The experiment is classed as functional.
Experiment [7] deals with NCI-H460. Nature of the experiment: Cytotoxicity against human H460 cells. The experiment is classed as functional.
Experiment [8] has as its system A-431. Nature of the experiment: Cytotoxicity against human A431 cells. The experiment is classed as functional.
In experiment [9] the test system is DU-145. In words: Cytotoxicity against human DU145 cells. The experiment is classed as functional.
Experiment [10] in a line: Cytotoxicity against human BE2-C cells. The experiment is classed as functional. Conditions: BE(2)-C.
Experiment [11] in a line: Cytotoxicity against human SJ-G2 cells. The experiment is classed as functional.
The species named for experiment [12] is Homo sapiens. Nature of the experiment: Inhibition of Protein phosphatase 1 at 100 uM.
The species entered for experiment [13] is Homo sapiens. Nature of the experiment: Inhibition of Protein phosphatase 2A at 100 uM.
Experiment [14] has as its system HT-29. Nature of the experiment: Cytotoxicity against human HT29 cells at 100 uM. The experiment is classed as functional.
For experiment [15], the system named is SW480. In words: Cytotoxicity against human SW480 cells at 100 uM. The experiment is classed as functional.
Experiment [16] deals with MCF7. Nature of the experiment: Cytotoxicity against human MCF7 cells at 100 uM. It is filed as functional.
Experiment [17] has as its system A2780. Nature of the experiment: Cytotoxicity against human A2780 cells at 100 uM. The experiment is classed as functional.
In experiment [18] the test system is NCI-H460. In words: Cytotoxicity against human H460 cells at 100 uM. It is filed as functional.
Experiment [19] relates to A-431. In words: Cytotoxicity against human A431 cells at 100 uM. It is filed as functional.
Experiment [20] concerns DU-145. In words: Cytotoxicity against human DU145 cells at 100 uM. It is filed as functional.
The nature of experiment [21]: Cytotoxicity against human BE2-C cells at 100 uM. The experiment is classed as functional. Conditions: BE(2)-C.
Experiment [22] is described as follows: Cytotoxicity against human SJ-G2 cells at 100 uM. The experiment is classed as functional.

For the compound `C[C@@]12C(=O)OC(=O)[C@]1(C)[C@H]1CC[C@@H]2O1` [CANTHARIDIN], the IC50 (as a rule, the concentration at which inhibition is half-maximal) in experiment [1] was 11 µM; in experiment [2], 1200 nM. Also, the GI50 (as a rule, the concentration giving 50% growth inhibition) amounted to 3.3 µM in the experiment on HT-29 [3]; 4.6 µM in the experiment on SW480 [4]; 7 µM in the experiment with MCF7 [5]; 5.8 µM in the experiment on A2780 [6]; 4 µM with NCI-H460 [7]; 3.4 µM with A-431 [8]. Further, the GI50 was determined as 2400 nM in the experiment on DU-145 [9], 4.9 µM in experiment [10] and 3000 nM in [11].

In the case of `O=C1OC(=O)[C@H]2[C@@H]1[C@@H]1CC[C@H]2O1`, the 50% inhibitory concentration (IC50) in experiment [1] is 9 µM; in experiment [2] it was 3000 nM. The concentration for 50% growth inhibition (GI50) in the experiment with HT-29 [3] was determined as 48 µM; in the experiment on SW480 [4], 35 µM; with MCF7 [5], 64 µM; in the experiment with A2780 [6], 59 µM; in the experiment with NCI-H460 [7], 45 µM; in the experiment on A-431 [8], 33 µM. The values for the concentration for 50% growth inhibition (GI50) (with DU-145 [9]; in experiment [10]; in experiment [11]) were 3000 nM, 56 µM and 35000 nM, respectively.

For the compound `O=C(NCCc1cnc[nH]1)NC(=O)C1C(C(=O)O)[C@@H]2CC[C@H]1O2` (stereo partly specified), the figures for the inhibition in the experiment listed under Homo sapiens [12] and in the experiment filed under Homo sapiens [13] were 35% and 56%, respectively. Moreover, the inhibition (as a rule, the percentage by which the read-out fell short of the control) at 100 µM turned out to be 21% with HT-29 [14]; 33% with SW480 [15]; 17% in the experiment with MCF7 [16]; 20% in the experiment with A2780 [17]; 25% with NCI-H460 [18]; 32% in the experiment with A-431 [19]. In addition, the inhibition at 100 µM turned out to be 14% in the experiment with DU-145 [20], 23% in [21] and 27% in experiment [22].

On to `O=C(NC(=O)Nc1ccc(N2CCOCC2)cc1)NC(=O)C1C(C(=O)O)[C@@H]2CC[C@H]1O2` (stereo partly specified), for which the 50% inhibitory concentration (IC50) was found to be 6.5 µM in experiment [1] and 7900 nM in experiment [2]. The inhibition at 100 µM is 23% with HT-29 [14]; 29% in the experiment on SW480 [15]; 20% in the experiment on MCF7 [16]; 18% in the experiment with A2780 [17]; 19% in the experiment on NCI-H460 [18]; 21% in the experiment with A-431 [19]. Also, the inhibition at 100 µM stood at 17% with DU-145 [20], 13% in experiment [21] and 21% in [22].

For `O=C(NCCN1CCOCC1)NC(=O)C1C(C(=O)O)[C@@H]2CC[C@H]1O2` (stereo partly specified), the IC50 was 31 µM in experiment [1] and 43000 nM in experiment [2]. The inhibition at 100 µM in the experiment on HT-29 [14] was determined as 37%; with SW480 [15], 14%; with MCF7 [16], 7.5%; with A2780 [17] it was 14%; in the experiment on NCI-H460 [18], 10%; with A-431 [19] it was 23%. The inhibition at 100 µM in the experiment with DU-145 [20] came out at 17%; in experiment [21] it was 26%; in experiment [22], 19%.

Regarding `C[C@]1(C(=O)O)[C@@H]2CC[C@@H](O2)[C@@]1(C)C(=O)NC(=O)N1CCOCC1`, the concentration for half-maximal inhibition (IC50) is 5.9 µM in experiment [1] and 790 nM in experiment [2]. The GI50 in the experiment with HT-29 [3] is 2.8 µM; in the experiment with SW480 [4] it was 3.9 µM; in the experiment on MCF7 [5], 5.8 µM; in the experiment on A2780 [6] it was 4.9 µM; in the experiment with NCI-H460 [7], 3.3 µM; in the experiment on A-431 [8], 2.9 µM. Besides, the GI50 with DU-145 [9] was determined as 1700 nM; in experiment [10], 2.5 µM; in experiment [11] it was 2100 nM.
